Literature values in patent publication US5420288A, “Electroluminescent device comprising oxadiazole compounds luminescent material, oxadiazole compounds for the device, and method of producing oxadiazole compounds” (Ricoh Company, Ltd., priority 1992, dated 1995).

Details: conventional materials, background

Compound: CC(C)(C)c1ccc(-c2nnc(-c3ccc(-c4ccccc4)cc3)o2)cc1 [2-(4-tert-butylphenyl)-5-(p-biphenyl)-1,3,4-oxadiazole]
- film-forming properties / crystallization / stability: easily crystallized and lacks in the stability
